# Values joined by “and” are separate entries in the source; they are usually repeats but may differ in a detail not shown here. Identical values can stand only once.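 Compound exposure: 48 hours, 5 concentrations, 96-well plates. Here, GI50 denotes the concentration required for 50% inhibition of growth. TGI is the concentration that stops growth completely.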
# How the values were obtained:
# Assay in all cases: NCI-60 cell line screen, 48 h
# RPMI-8226 leukemia = system: RPMI-8226 leukemia
# 786-0 renal = system: 786-0 renal
# SK-OV-3 ovarian = system: SK-OV-3 ovarian
# HCT-15 colon = system: HCT-15 colon
# NCI/ADR-RES ovarian = system: NCI/ADR-RES ovarian
# NCI-H226 lung = system: NCI-H226 lung
# T-47D breast = system: T-47D breast
# NCI-H23 lung = system: NCI-H23 lung
# MDA-MB-435 = system: MDA-MB-435
# SK-MEL-28 melanoma = system: SK-MEL-28 melanoma
Structure (SMILES),GI50 (RPMI-8226 leukemia),TGI (RPMI-8226 leukemia) [µM],GI50 (786-0 renal),TGI (786-0 renal) [µM],GI50 (SK-OV-3 ovarian),TGI (SK-OV-3 ovarian) [µM],GI50 (HCT-15 colon),TGI (HCT-15 colon) [µM],GI50 (NCI/ADR-RES ovarian),TGI (NCI/ADR-RES ovarian) [µM],GI50 (NCI-H226 lung),TGI (NCI-H226 lung) [µM],GI50 (T-47D breast) [µM],GI50 (NCI-H23 lung),TGI (NCI-H23 lung) [µM],GI50 (MDA-MB-435) [µM],TGI (MDA-MB-435) [µM],GI50 (SK-MEL-28 melanoma) [µM],TGI (T-47D breast) [µM],TGI (SK-MEL-28 melanoma) [µM]
CC[C@H](C)[C@H](NC(=O)[C@H]1CCCCN1C)C(=O)N(C)[C@H](C[C@@H](OC(C)=O)c1cccc(C(=O)N[C@@H](Cc2ccccc2)C[C@H](C)C(=O)OC)n1)C(C)C,0.00268 µM and 0.0025 µM,14.5,0.00526 µM and 0.00425 µM,18.3,0.00308 µM and 0.00314 µM,> 25,0.00815 µM and 0.00702 µM,9.64,0.175 µM and 0.276 µM,> 25,0.456 µM and 0.0514 µM,> 25,0.000953,0.00443 µM and 0.00521 µM,> 25,0.00028,0.00143,0.00937,,
Fc1ccc(-c2c(-c3ccncc3)nc3n2CCS3)cc1,> 25 µM,> 25,> 25 µM,> 25,> 25 µM,> 25,> 25 µM,> 25,> 25 µM,> 25,> 25 µM,> 25,> 25,> 25 µM,> 25,> 25,> 25,> 25,> 25,> 25
Cc1onc(-c2ccccc2)c1C(=O)N/N=C/c1cc(Cl)cc(Cl)c1O,5.61 µM,49.7,5.01 µM,50.7,7.82 µM,50.7,2.05 µM,> 100,3.76 µM,34.3,8.47 µM,72.7,6.31,10.6 µM,67.9,6.39,> 100,6.51,57.8,> 100
CC(=O)O[C@@H]1C2CCC3C(CC[C@@]4(C)C3CC[C@@H]4C(C)N(C)C)[C@@]2(C)CC[C@@H]1NC(=O)C=C(C)C (some centres undefined),1.96 µM,5.53,2.42 µM,6.73,3.61 µM,10.3,1.39 µM,3.45,4.26 µM,17.7,5.22 µM,19.6,1.75,3.13 µM,14,1.92,4.26,1.73,6.23,3.27
COc1ccc(/C=C\c2cc(OC)c(OC)c(OC)c2)cc1OCC(=O)Nc1nc2ccc(F)cc2s1,6.36 µM,> 100,7.12 µM,> 100,8 µM,> 100,8.19 µM,> 100,2.55 µM,> 100,5.6 µM,> 100,3.39,4.26 µM,> 100,0.335,> 100,> 100,68.5,> 100
Oc1c(Cl)cc(Cl)c(Cl)c1CNCCNCc1c(O)c(Cl)cc(Cl)c1Cl,1.51 µM,> 50,1.48 µM,8.43,1.48 µM,7.7,0.282 µM,11.6,0.245 µM,6.84,4.1 µM,18.1,0.988,1.42 µM,9.08,1.58,9.87,1.02,> 50,8.64
Cc1nc([N+](=O)[O-])cn1-c1nc2ccccn2c1[N+](=O)[O-],,> 100,,> 100,,> 100,,> 100,,> 100,,> 100,,,> 100,,> 100,,> 100,> 100
Nc1nc(/C=C\c2ccc([N+](=O)[O-])s2)nc(N2CCN(c3ccccc3)CC2)n1,22.9 µM,74,24.2 µM,48.7,30.7 µM,62.5,14.6 µM,28.3,21.3 µM,53,15.2 µM,36.4,14.2,,,19.2,43.6,24.9,43.2,47.1
CN(Cc1ccccc1)Cn1ccnc1,,> 78.1,,> 100,,> 100,,> 100,,> 100,,> 100,,,> 100,,> 100,,> 100,> 68
Cc1cnc2n1S(=O)(=O)c1cc(C(=O)Nc3cccc4nsnc34)c(Cl)cc1S2,17.4 µM,39.7,> 100 µM,> 100,> 100 µM,> 100,38.1 µM,> 100,16.2 µM,34.1,17.3 µM,34.2,11.5,18 µM,32.8,22.4,56.5,19.8,31.9,42.6
Cc1c(-c2cnccn2)ssc1=S,,> 100,,> 77.4,,93,,> 100,,> 100,,> 100,,,> 100,,> 100,,> 100,> 100
Cc1cc2c(C(=O)NC[C@H](C)c3ccccc3)c(O)c(O)cc2c(O)c1-c1c(C)cc2c(C(=O)NC[C@H](C)c3ccccc3)c(O)c(O)cc2c1O,0.185 µM,5.41,0.368 µM,1.8,0.431 µM,2.8,0.208 µM,12.6,0.252 µM,4.3,0.244 µM,0.987,0.284,0.0571 µM,1.65,0.232,4.79,0.437,1.34,4.41
COc1ccc(C2(Cl)c3ccccc3N(c3ccccc3)c3ccccc32)cc1,0.218 µM,1.36,0.618 µM,2.06,0.495 µM,2.74,0.909 µM,10.8,2.05 µM,10.5,1.01 µM,3.55,0.288,0.329 µM,1.81,0.242,1.56,0.222,5.38,1.49
COc1cc2c(cc1OC(C)C)[C@H](c1ccc(Cl)cc1)N(c1ccc(N(C)CC3CCC(N4CCN(C)C(=O)C4)CC3)cc1)C(=O)C2 (some centres undefined),2.13 µM,4.76,2.85 µM,8.73,4.05 µM,8.86,1.95 µM,5.79,3.18 µM,14.7,0.311 µM,1.7,2.62,3.34 µM,13.2,2.47,6.93,2,11.8,4.29
O=C1NC(=C(Cl)Cl)/C(=N/S(=O)(=O)N2CCCCC2)N1,0.553 µM,4.23,2.79 µM,7.74,15.4 µM,28.8,1.82 µM,3.91,3.87 µM,29.2,3.37 µM,14.9,5.94,2.2 µM,5,1.98,4.21,1.92,64.5,3.56
CCCCCCCCCCCCCCCC1=NCC[N+]1(CCO)CCO,4.89 µM,40.5,1.64 µM,3,4.3 µM,15.9,1.94 µM,4.48,2.62 µM,6.61,3.17 µM,12.3,3.35,2.16 µM,5.08,2.1,4.4,5.1,13.2,16.8
CC1Cc2c(Cl)ncnc2N(C)c2ccc(Cl)cc21 (centres undefined),0.441 µM,17.1,0.321 µM,> 100,0.372 µM,12.9,0.331 µM,> 100,0.333 µM,32.3,0.241 µM,0.602,0.521,0.316 µM,2.2,0.329,1.85,0.394,> 100,95.1
C/C=C(\C)c1cc(=O)c2c(C)cc3c(c2o1)C(=O)c1c(O)c(C2CC(C)(N(C)C)C(OC(C)=O)C(C)O2)cc(C2CC(N(C)C)C(O)C(C)O2)c1C3=O (centres undefined),,> 50,,5.68,,> 50,,12.2,,9.16,,5.57,,,> 11.9,,3.45,,38.2,8.41
O=C(O)CCNCC(=O)O,,> 100,,> 100,,> 100,,> 100,,> 100,,> 100,,,> 100,,> 100,,> 100,> 100
COc1ccc(C(=O)C(CN(C)C)CN(C)C)cc1,2.45 µM,6.67,3.87 µM,16.1,20.2 µM,59.5,2.47 µM,6.85,2.6 µM,6.42,16.9 µM,37.6,1.86,14.2 µM,41,2.84,8.58,12.6,5.28,27.3
Oc1ccc(C=Nc2ccccc2O)cc1,,> 100,,67.4,,> 100,,> 100,,> 100,,> 100,,,> 100,,33,,> 100,> 100
CNC(=O)c1c(C)oc2cc(Oc3ncnc4cc(OC)c(OC)cc34)ccc12,> 100 µM,> 100,> 100 µM,> 100,> 100 µM,> 100,> 100 µM,> 100,> 100 µM,> 100,2.47 µM,> 100,> 100,> 100 µM,> 100,> 100,> 100,> 100,> 100,> 100
CN[C@H]1CN(c2ccc3c(=O)c(C(=O)O)cn(-c4nccs4)c3n2)C[C@@H]1OC,1.08 µM,> 24,0.426 µM,6.18,1.08 µM,5.29,1.13 µM,7.72,1.3 µM,7.56,0.632 µM,3.24,1.23,0.34 µM,2.01,1.29,3.51,1.31,7.76,3.01
O=c1oc2ccc(I)cc2c(=O)n1-c1ccc(Br)cc1F,0.398 µM,2.57,2.42 µM,7.12,0.614 µM,2.97,1.28 µM,7.89,0.798 µM,6.09,1.27 µM,4.39,0.856,0.658 µM,3.99,0.938,6.42,0.404,6.7,2.03
Cc1cc2nc(NCCN)n(Cc3ccc(F)c(Cl)c3)c2cc1C,3.95 µM,15.1,10.2 µM,23.3,16.9 µM,30.8,5.74 µM,19.1,16.3 µM,32.1,19.8 µM,39.7,6.16,14.5 µM,29.2,3.68,14,2.47,21.7,6.63
O=C(CN(/C=C/C(=O)C(F)(F)F)c1ccc(Cl)cc1)c1ccc(Cl)cc1,11.5 µM,37.7,18.6 µM,65.1,17.9 µM,33.5,6.83 µM,20.4,9.07 µM,37,14.8 µM,29.4,5.88,6.3 µM,20.9,7.83,29,16.6,38.3,39.5
C[C@@H](Oc1cc(-n2cnc3ccc(OC4CCN(C)CC4)cc32)sc1C(N)=O)c1ccccc1Cl,0.0842 µM,6.66,0.0951 µM,3.48,0.0216 µM,2.8,0.0827 µM,3.55,0.0955 µM,3.58,0.289 µM,5.49,3.57,0.0183 µM,5.18,0.00549,0.0159,,8.73,

# From PubChem BioAssay (NCI)
